Results published in patent US20140228543A1, “MODIFIED AND DERIVATIZED ß-GLUCAN COMPOUNDS, COMPOSITIONS, AND METHODS” (Biothera, Inc., priority 2011, published 2014).

What was measured:
human neutrophils [1] = test: iC3b deposition on neutrophils (flow cytometry); format: cell-based; conditions: 200 μg/mL hexose concentration, 2 hr, 37° C., 10% serum
Description: This ability was evaluated by comparing the levels of iC3b complement fragment detected on human neutrophils with the derivative versus parent β-glucan-bound.
Enriched neutrophils were resuspended at 1×10^6 cells/mL in RPMI 1640 supplemented with 10% serum. The parent or the derivatized glucans at 200, μg/mL hexose concentration were added to neutrophils and incubated in a 37° C., 5% C02 humidified incubator for 2 hr. After incubation, cells were washed twice with FACS buffer (HBSS supplemented with 1% FBS and 0.1% sodium azide) to remove any unbound β-glucan, stained with a neo-epitope specific anti-iC3b Ab and PE-conjugated goat anti-mouse IgG and subsequently analyzed by flow cytometry.
Table 1 below lists the fold change of mean fluorescence intensity (MFI) values of iC3b staining on neutrophils treated with each of the parent or derivatized glucans over that of PBS control-treated cells.

human neutrophils [2] = test: β-glucan binding on neutrophils (BfD IV staining, flow cytometry); format: cell-based; conditions: 200 μg/mL hexose concentration, 2 hr, 37° C., 10% serum
Description: This ability was evaluated by comparing the levels of neutrophil-bound parent versus the derivatives of β-glucans detected by BfD IV, a monoclonal antibody (MAb) specific for β-1,3/1,6 glucans. […] Table 2 lists the fold change of MFI values of BfD IV staining on neutrophils treated with each of the parent and derivatized glucans over that of PBS control-treated cells.
Enriched neutrophils were resuspended at 1×10^6 cells/mL in RPMI 1640 supplemented with 10% serum. The parent or the derivatized glucans at 200, μg/mL hexose concentration were added to neutrophils and incubated in a 37° C., 5% CO2 humidified incubator for 2 hr. After incubation, cells were washed twice with FACS buffer (HBSS supplemented with 1% FBS and 0.1% sodium azide) to remove any unbound β-glucan, and subsequently treated with Fc block. Post Fc block step, cells were stained with the BfD IV Ab for 30 min at 4° C. and washed twice with cold FACS buffer. Cells were then incubated with FITC-conjugated F(ab′)2 goat anti-mouse IgM for 30 min at 4° C. and washed once with cold FACS buffer before fixing with 1% paraformaldehyde. Events were collected on a LSRII flow cytometer and analysis was performed using FlowJo software.
Table 2 summarizes the fold change of MFI values of BfD IV staining on neutrophils treated with each of the parent, or derivatized β-glucans, over that of PBS control-treated cells.

Row | Substance | Approximate Fold Increase/Decrease in MFI over Parent Compound (iC3b) (human neutrophils [1]) | MFI(ic3b) compound/MFI(ic3b) PBS (human neutrophils [1]) | Approximate Fold Increase/Decrease in MFI over Parent Compound (BfD IV) (human neutrophils [2]) | MFI(BID IV) compound/MFI(BID IV) PBS (human neutrophils [2])
1 | Mannose Propyl Amine LMW Yeast Glucan Analog [BT-1278] | 0.9 fold | 1.0 | 0.9 fold | 1.3
2 | Benzyl Amine Reducing End MMW Yeast Glucan Analog [BT-1275] | 0.9 fold | 1.7 ± 0.1 | 0.6 fold | 2.4 ± 1.2
3 | Galactose Propyl Amine MMW Yeast Glucan Analog [BT-1245] | 2.3 fold | 4.5 ± 1.2 | 1.6 fold | 6.6 ± 3.78
4 | Mannose Propyl Amine Laminarin Analog [BT-1281] | 0.8 fold | 1.1 | 1.1 fold | 1.2
5 | Propyl Amine Dextran Analog [BT-1266] | 0.9 fold | 1.0 | 1.1 fold | 1.1
6 | Galactose Propyl Amine Dextran Analog [BT-1286] | 0.9 fold | 1.0 | 1.0 fold | 1.0
7 | Benzyl Amine Scleroglucan Analog [BT-1272] | 2.4 fold | 3.9 | 1.7 fold | 3.2
8 | Mannose Propyl Amine Dextran Analog [BT-1287] | 0.9 fold | 1.0 | 1.0 fold | 1.0
9 | Dextran [Dextran (control), reference compound] |  | 1.1 ± 0.2 |  | 1.0
10 | Mannose Propyl Amine MMW Yeast Glucan Analog [BT-1243] | 4.3 fold | 8.6 ± 0.3 | 4.7 fold | 19.7 ± 13.4
11 | Tyrosine MMW Yeast Glucan Analog [BT-1297] | 1.2 fold | 2.3 | 0.5 fold | 2.2
12 | Mannose Propyl Amine Scleroglucan Analog [BT-1290] | 0.7 fold | 1.1 | 0.7 fold | 1.4
13 | Benzyl Amine Laminarin Analog [BT-1234] | 3.9 fold | 5.1 | 70.0 fold | 77
14 | Tryptophan MMW Yeast Glucan Analog [BT-1220] | 5.1 fold | 10.1 | 4.8 fold | 20.3
15 | Laminarin [Laminarin (parent), reference compound] |  | 1.3 |  | 1.1
16 | Benzyl Amine LMW Yeast Glucan Analog [BT-1273] | 2.2 fold | 2.4 | 11.3 fold | 17.0
17 | 3-Aminopropyl Imidazole MMW Yeast Glucan Analog [BT-1304] | 0.6 fold | 1.2 | 0.5 fold | 2.1
18 | Lactose Propyl Amine MMW Yeast Glucan Analog [BT-1244] | 1.5 fold | 3.0 ± 0.1 | 1.0 fold | 4.0 ± 1.9
19 | Scleroglucan [Scleroglucan (parent), reference compound] |  | 1.6 |  | 1.9
20 | Propyl Amine MMW Yeast Glucan Analog [BT-1267] | 4.0 fold | 8.0 ± 3.9 | 5.6 fold | 23.6 ± 16.4
21 | S-(+)-2-Phenyl Glycinol MMW Yeast Glucan Analog [BT-1300] | 0.8 fold | 1.6 | 0.6 fold | 2.5
22 | Galactose Propyl Amine LMW Yeast Glucan Analog [BT-1277] | 0.9 fold | 1.0 | 0.9 fold | 1.3
23 | Propyl Amine LMW Yeast Glucan Analog [BT-1276] | 1.1 fold | 1.2 ± 0.1 | 1.0 fold | 1.5 ± 0.1
24 | Maltose Propyl Amine MMW Yeast Glucan Analog [BT-1248] | 1.8 fold | 3.5 ± 0.4 | 1.1 fold | 4.7 ± 3.8
